Assay results from PMC6934184, “Selective DNA-PKcs inhibition extends the therapeutic index of localized radiotherapy and chemotherapy” (The Journal of Clinical Investigation, 2019).

Target: T1, EGFR (ErbB1) L858R (Homo sapiens, UniProt P00533, L858R)
T1 construct: purchased Thermo Fisher Scientific (Life Technologies) SelectScreen
Test: SelectScreen Z'LYTE
Format: biochemical
Summary of the method: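 NU5455 was profiled across the SelectScreen Broad panel of kinase activity and binding assays. Z'LYTE reactions such as CSF1R ran at apparent Km ATP, while the Adapta CAMK1 assay used ATP listed as 10. Values are given as percent.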

T1 sequence (P00533 25-1210 L858R): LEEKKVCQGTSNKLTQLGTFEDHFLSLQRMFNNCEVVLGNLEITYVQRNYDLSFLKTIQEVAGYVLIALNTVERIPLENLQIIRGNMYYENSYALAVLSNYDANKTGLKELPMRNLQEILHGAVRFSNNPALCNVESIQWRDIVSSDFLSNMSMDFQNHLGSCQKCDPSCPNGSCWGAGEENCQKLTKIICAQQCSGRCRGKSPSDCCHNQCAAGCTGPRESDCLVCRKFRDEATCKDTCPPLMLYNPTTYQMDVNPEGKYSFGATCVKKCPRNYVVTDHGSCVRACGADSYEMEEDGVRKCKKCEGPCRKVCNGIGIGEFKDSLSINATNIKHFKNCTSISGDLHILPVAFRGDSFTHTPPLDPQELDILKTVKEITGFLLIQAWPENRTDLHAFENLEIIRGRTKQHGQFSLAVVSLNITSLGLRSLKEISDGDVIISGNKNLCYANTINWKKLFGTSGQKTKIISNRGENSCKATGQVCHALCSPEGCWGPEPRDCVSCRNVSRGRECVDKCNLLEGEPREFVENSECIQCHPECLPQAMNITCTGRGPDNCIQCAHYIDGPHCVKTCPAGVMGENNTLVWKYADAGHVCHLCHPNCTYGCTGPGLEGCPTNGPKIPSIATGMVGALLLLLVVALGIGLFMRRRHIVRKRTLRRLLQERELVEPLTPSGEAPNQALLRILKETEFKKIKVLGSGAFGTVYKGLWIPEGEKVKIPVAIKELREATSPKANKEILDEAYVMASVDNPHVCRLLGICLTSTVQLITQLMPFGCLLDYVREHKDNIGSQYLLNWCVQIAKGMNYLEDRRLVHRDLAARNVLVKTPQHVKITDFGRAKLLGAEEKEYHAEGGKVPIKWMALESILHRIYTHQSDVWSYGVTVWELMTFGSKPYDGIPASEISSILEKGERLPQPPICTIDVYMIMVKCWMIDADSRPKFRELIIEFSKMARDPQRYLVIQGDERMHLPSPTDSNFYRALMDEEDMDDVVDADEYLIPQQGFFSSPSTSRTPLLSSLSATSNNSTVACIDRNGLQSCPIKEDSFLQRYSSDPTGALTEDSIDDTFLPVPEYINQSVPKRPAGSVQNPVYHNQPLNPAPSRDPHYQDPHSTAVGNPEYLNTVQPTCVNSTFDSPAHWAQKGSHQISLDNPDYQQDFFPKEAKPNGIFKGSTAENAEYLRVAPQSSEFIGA

SMILES: CN(C(=O)CN1CCOCC1)c1ccc2sc3c(-c4cccc5c(=O)cc(N6CC7CCC(C6)O7)oc45)cccc3c2c1 [NU5455]
- inhibition at 1 µM: -15%
